{
  "source": "patent US8759539B2",
  "about": "“Substituted bicyclic amines for the treatment of diabetes” (Merck Sharp & Dohme Corp., priority 2008, dated 2014)",
  "key": {"SSTR5 [1]": {"target": "T1, SSTR5 (Homo sapiens, UniProt P35346)", "assay": "SSTR5 binding (R5 Bnd)"}, "SSTR5 [2]": {"target": "T1, SSTR5", "assay": "Functional assay to assess the inhibition of SSTR5 mediated cyclic AMP production", "format": "cell-based, human or mouse", "conditions": "SSTR5 stable CHO cells, 5 μM FSK, Lance cAMP assay kit, eight-point titration", "method": "Functional Assay to Assess the Inhibition of SSTR5Mediated Cyclic AMP Production:\nThe effects of compounds that bind to human and murine SSTR5 with various affinities on the functional activity of the receptor were assessed by measuring cAMP production in the presence of Forskolin (FSK) alone or FSK plus SS-28 in SSTR5 expressing CHO cells. FSK acts to induce cAMP production in these cells by activating adenylate cyclases, whereas SS-28 suppresses cAMP production in the SSTR5 stable cells by binding to SSTR5 and the subsequent inhibition of adenylate cyclases via an alpha subunit of […] (Gαi).\nTo measure the agonism activity of the compounds, human or mouse SSTR5 stable CHO cells were pre-incubated with the compounds for 15 min, followed by a one-hour incubation of the cells with 5 μM FSK (in the continuous presence of the compounds). The amount of cAMP produced during the incubation was quantified with the Lance cAMP assay kit (PerkinElmer, CA) according to the manufacturer's instruction, as well as, an IC50 value was obtained by an eight-point titration."}},
  "note": "pIC50: −log10 of the molar value.",
  "data": [
    {"smiles": "CCOc1cc(CN2CC[C@H]3C(Nc4nc5ccc(C(=O)O)cc5o4)CC[C@H]32)cc(OCC)c1-c1ccc(F)cc1", "note": "(stereo partly shown) [Example 79]", "values": [
      {"measurement": "pIC50", "setting": "SSTR5 [1]", "result": 8.89},
      {"measurement": "pIC50", "setting": "SSTR5 [2]", "result": 8.28}
    ]},
    {"smiles": "CCOc1cc(CN2CC[C@H]3C(NC(=O)c4cnc5cc(Cl)ccc5c4O)CC[C@H]32)cc(OCC)c1-c1ccc(F)cc1", "note": "(stereo partly shown) [Example 61]", "values": [
      {"measurement": "pIC50", "setting": "SSTR5 [1]", "result": 7.80},
      {"measurement": "pIC50", "setting": "SSTR5 [2]", "result": 6.91}
    ]},
    {"smiles": "CCOc1cc(CN2CC[C@H]3C(NC(=O)c4cccc(C)c4)CC[C@H]32)cc(OCC)c1-c1ccc(F)cc1", "note": "(stereo in doubt) [Example 81]", "values": [
      {"measurement": "pIC50", "setting": "SSTR5 [1]", "result": 8.30},
      {"measurement": "pIC50", "setting": "SSTR5 [2]", "result": 7.15}
    ]},
    {"smiles": "CCOc1cc(CN2CC[C@H]3C(Nc4nc5cc(S(=O)(=O)/N=C/N(C)C)ccc5o4)CC[C@H]32)cc(OCC)c1-c1ccc(F)cc1", "note": "(stereo partly shown) [Example 100]", "values": [
      {"measurement": "pIC50", "setting": "SSTR5 [1]", "result": 8.68},
      {"measurement": "pIC50", "setting": "SSTR5 [2]", "result": 7.41}
    ]},
    {"smiles": "CCOc1cc(CN2CC[C@H]3C(NC(=O)Nc4cccc(C)c4)CC[C@H]32)cc(OCC)c1-c1ccc(F)cc1", "note": "(stereo partly shown) [Example 90]", "values": [
      {"measurement": "pIC50", "setting": "SSTR5 [1]", "result": 8.30},
      {"measurement": "pIC50", "setting": "SSTR5 [2]", "result": 7.07}
    ]},
    {"smiles": "CCOc1cc(CN2CC[C@H]3C(NC(=O)c4ccc5c(c4)nnn5C(C)C)CC[C@H]32)cc(OCC)c1-c1ccc(F)cc1", "note": "(stereo partly shown) [Example 72]", "values": [
      {"measurement": "pIC50", "setting": "SSTR5 [1]", "result": 8.33},
      {"measurement": "pIC50", "setting": "SSTR5 [2]", "result": 7.23}
    ]},
    {"smiles": "CCOc1cc(CN2CC[C@H]3C(NC(=O)c4ccc(C)nc4)CC[C@H]32)cc(OCC)c1-c1ccc(F)cc1", "note": "(stereo partly shown) [Example 60]", "values": [
      {"measurement": "pIC50", "setting": "SSTR5 [1]", "result": 8.26},
      {"measurement": "pIC50", "setting": "SSTR5 [2]", "result": 7.34}
    ]},
    {"smiles": "CCOc1cc(CN2CC[C@H]3C(Nc4nc5ccc(F)cc5o4)CC[C@H]32)cc(OCC)c1-c1ccc(F)cc1", "note": "(stereo partly shown) [Example 83]", "values": [
      {"measurement": "pIC50", "setting": "SSTR5 [1]", "result": 8.13},
      {"measurement": "pIC50", "setting": "SSTR5 [2]", "result": 6.60}
    ]},
    {"smiles": "Cc1cncc(C(=O)N[C@H]2CC[C@@H]3[C@H]2CCN3Cc2cccc(-c3ccccc3)c2)c1", "note": "[Example 19]", "values": [
      {"measurement": "pIC50", "setting": "SSTR5 [1]", "result": 6.91},
      {"measurement": "pIC50", "setting": "SSTR5 [2]", "result": 5.91}
    ]},
    {"smiles": "CCOc1cc(CN2CC[C@H]3C(NC(=O)c4cccc(C)c4)CC[C@H]32)cc(OCC)c1-c1ccc(F)cc1", "note": "(stereo in doubt) [Example 63]", "values": [
      {"measurement": "pIC50", "setting": "SSTR5 [1]", "result": 8.76},
      {"measurement": "pIC50", "setting": "SSTR5 [2]", "result": 7.49}
    ]},
    {"smiles": "CCOc1cc(CN2CC[C@H]3C(NC(=O)c4cncnc4)CC[C@H]32)cc(OCC)c1-c1ccc(F)cc1", "note": "(stereo partly shown) [Example 75]", "values": [
      {"measurement": "pIC50", "setting": "SSTR5 [1]", "result": 6.83},
      {"measurement": "pIC50", "setting": "SSTR5 [2]", "result": 6.41}
    ]},
    {"smiles": "CCOc1cc(CN2CC[C@H]3C(NC(=O)c4ccc5[nH]c(C)nc5c4)CC[C@H]32)cc(OCC)c1-c1ccc(F)cc1", "note": "(stereo partly shown) [Example 69]", "values": [
      {"measurement": "pIC50", "setting": "SSTR5 [1]", "result": 7.27},
      {"measurement": "pIC50", "setting": "SSTR5 [2]", "result": 6.86}
    ]},
    {"smiles": "CCOc1cc(CN2CC[C@H]3C(NS(=O)(=O)c4cccc(C)c4)CC[C@H]32)cc(OCC)c1-c1ccc(F)cc1", "note": "(stereo partly shown) [Example 101]", "values": [
      {"measurement": "pIC50", "setting": "SSTR5 [1]", "result": 7.92},
      {"measurement": "pIC50", "setting": "SSTR5 [2]", "result": 6.58}
    ]},
    {"smiles": "CCOc1cc(CN2CC[C@H]3C(NC(=O)OCc4ccccc4)CC[C@H]32)cc(OCC)c1-c1ccc(F)cc1", "note": "(stereo partly shown) [Example 97]", "values": [
      {"measurement": "pIC50", "setting": "SSTR5 [1]", "result": 8.84},
      {"measurement": "pIC50", "setting": "SSTR5 [2]", "result": 7.49}
    ]}
  ]
}
